Test results: PMC4657098, “A Review of the Updated Pharmacophore for the Alpha 5 GABA(A) Benzodiazepine Receptor Model” (International Journal of Medicinal Chemistry, 2015)

Assays:
[1] = molecular target: T1, 5ht7 (Homo sapiens, UniProt P34969); assay: PDSP receptor binding, 5ht7; conditions: PDSP primary screen at 10 µM
T1 construct: purchased NIMH PDSP (Psychoactive Drug Screening Program, Roth lab, Case Western Reserve)

[2] = tested on: NMDA; assay: PDSP receptor binding, NMDA; conditions: PDSP primary screen at 10 µM
[3] = molecular target: T2, 5ht1d (Homo sapiens, UniProt P28221); assay: PDSP receptor binding, 5ht1d; conditions: PDSP primary screen at 10 µM
T2 construct: purchased NIMH PDSP (Psychoactive Drug Screening Program, Roth lab, Case Western Reserve)

[4] = tested on: σ2; assay: PDSP receptor binding, σ2; conditions: PDSP primary screen at 10 µM
[5] = tested on: MDR; assay: PDSP receptor binding, MDR; conditions: PDSP primary screen at 10 µM
[6] = molecular target: α5β3γ2 BzR/GABA(A); conditions: text b7; read-out: Ki at the α5β3γ2 subtype; cited from earlier work
[7] = molecular target: T3, Beta1 (Homo sapiens, UniProt P08588); assay: PDSP receptor binding, Beta1; conditions: PDSP primary screen at 10 µM
T3 construct: purchased NIMH PDSP (Psychoactive Drug Screening Program, Roth lab, Case Western Reserve)

[8] = molecular target: α1β3γ2 GABAA/BzR (Homo sapiens, UniProt P14867+P18507); assay: Competition binding to HEK cell membranes, α1β3γ2; parameters: expressed in transfected cells; conditions: Ki α1
[9] = molecular target: T4, M4 (Homo sapiens, UniProt P08173); assay: PDSP receptor binding, M4; conditions: PDSP primary screen at 10 µM
T4 construct: purchased NIMH PDSP (Psychoactive Drug Screening Program, Roth lab, Case Western Reserve)

[10] = molecular target: α2β3γ2 GABAA/BzR (Homo sapiens, UniProt P18507+P47869); assay: Competition binding to HEK cell membranes, α2β3γ2; parameters: expressed in transfected cells; conditions: Ki α2
[11] = molecular target: T5, σ1 (Homo sapiens, UniProt Q99720); assay: PDSP receptor binding, σ1; conditions: PDSP primary screen at 10 µM
T5 construct: purchased NIMH PDSP (Psychoactive Drug Screening Program, Roth lab, Case Western Reserve)

[12] = molecular target: α3β3γ2 GABAA/BzR (Homo sapiens, UniProt P18507+P34903); assay: Competition binding to HEK cell membranes, α3β3γ2; parameters: expressed in transfected cells; conditions: Ki α3
[13] = molecular target: T6, 5ht3 (Homo sapiens, UniProt P46098); assay: PDSP receptor binding, 5ht3; conditions: PDSP primary screen at 10 µM
T6 construct: purchased NIMH PDSP (Psychoactive Drug Screening Program, Roth lab, Case Western Reserve)

[14] = molecular target: T7, 5ht2c (Homo sapiens, UniProt P28335); assay: PDSP receptor binding, 5ht2c; conditions: PDSP primary screen at 10 µM
T7 construct: purchased NIMH PDSP (Psychoactive Drug Screening Program, Roth lab, Case Western Reserve)

[15] = tested on: Bz BS of GABA(A) receptors; conditions: Supplement Table 1; cited from earlier work
[16] = molecular target: T8, D5 (Homo sapiens, UniProt P21918); assay: PDSP receptor binding, D5; conditions: PDSP primary screen at 10 µM
T8 construct: purchased NIMH PDSP (Psychoactive Drug Screening Program, Roth lab, Case Western Reserve)

[17] = molecular target: T9, α5β3γ2 GABAA receptor (Homo sapiens, UniProt P18507+P31644); assay: Oocyte electrophysiology, α5β3γ2; assay type: cell-based
T9 construct: expressed in transfected cells; host or cells: Xenopus oocytes

[18] = molecular target: T10, NET (Homo sapiens, UniProt P23975); assay: PDSP receptor binding, NET; conditions: PDSP primary screen at 10 µM
T10 construct: purchased NIMH PDSP (Psychoactive Drug Screening Program, Roth lab, Case Western Reserve)

[19] = molecular target: T11, H4 (Homo sapiens, UniProt Q9H3N8); assay: PDSP receptor binding, H4; conditions: PDSP primary screen at 10 µM
T11 construct: purchased NIMH PDSP (Psychoactive Drug Screening Program, Roth lab, Case Western Reserve)

[20] = molecular target: T12, α4β3γ2 GABAA/BzR (Homo sapiens, UniProt P18507+P48169); assay: biochemical; assay type: binding
T12 construct: expressed in transfected cells; host or cells: LTK cells (given for XLi-093 only)

[21] = molecular target: T9, α5β3γ2 GABAA receptor; conditions: cited from earlier work
[22] = tested on: GABA(A) receptor subtypes; conditions: up to a concentration of 1 μM; any one of the subtypes tested; cited from earlier work
[23] = molecular target: α2β3γ2 BzR/GABA(A); conditions: Figure 1; LTK cells; read-out: Binding affinity α2; cited from earlier work
[24] = molecular target: KOR (Homo sapiens, UniProt P41145); assay: PDSP receptor binding, KOR; conditions: Case Western Reserve University, read-out: KOR Ki (secondary binding)

In the case of `C#Cc1ccc2c(c1)C(=O)N(C)Cc1c(C(=O)OCCCOC(=O)c3ncn4c3CN(C)C(=O)c3cc(C#C)ccc3-4)ncn1-2` [XLi-093 (4), 1,3-Bis(8-acetyleno-5,6-dihydro-5-methyl-6-oxo-4H-imidazo[1,5a][1,4]benzodiazepine-3-carboxy) propyl diester], the 5ht7 binding [1] is reported as “∗ (“∗” indicates “primary missed” (<50% inhibition at 10 µM))”, the NMDA binding [2] is reported as “∗ (“∗” indicates “primary missed” (<50% inhibition at 10 µM))” and the 5ht1d binding [3] is reported as “∗ (“∗” indicates “primary missed” (<50% inhibition at 10 µM))”. For the same molecule, the σ2 binding [4] was “∗ (“∗” indicates “primary missed” (<50% inhibition at 10 µM))”, the MDR binding [5] was “∗ (“∗” indicates “primary missed” (<50% inhibition at 10 µM))” and the Ki [6] was 15 nM. The Beta1 binding [7] was “∗ (“∗” indicates “primary missed” (<50% inhibition at 10 µM))”, the Ki [8] was > 1000 nM and the M4 binding [9] was “∗ (“∗” indicates “primary missed” (<50% inhibition at 10 µM))”. For the same molecule, the Ki [10] was > 1000 nM, the σ1 binding [11] was “∗ (“∗” indicates “primary missed” (<50% inhibition at 10 µM))” and the Ki [12] was 858 nM. For the same molecule, the 5ht3 binding [13] was “∗ (“∗” indicates “primary missed” (<50% inhibition at 10 µM))”, the 5ht2c binding [14] was “∗ (“∗” indicates “primary missed” (<50% inhibition at 10 µM))” and the modulation [15] was “antagonist”. For the same molecule, the D5 binding [16] was “∗ (“∗” indicates “primary missed” (<50% inhibition at 10 µM))”, the “efficacy type at the α5 subtype” value [17] was “antagonist” and the NET binding [18] was “∗ (“∗” indicates “primary missed” (<50% inhibition at 10 µM))”. For the same molecule, the H4 binding [19] was “∗ (“∗” indicates “primary missed” (<50% inhibition at 10 µM))”, the Ki [20] was 1550 nM and the “modulation of GABA induced chloride flux, α5β3γ2” value ([21]; at 1 μM) was “very slightly inhibited”. The “influence on benzodiazepine (Valium) stimulation of GABA-induced current, α5β3γ2” value [21] was “shifted the diazepam dose response curve to the right”, the “inhibition of diazepam-stimulated currents in α5β3γ2 receptors” value [21] was “dose dependently and completely inhibit” and the “triggering of chloride flux” value [22] was “did not trigger chloride flux”. For the same molecule, the Ki [23] was > 1000 nM and the Ki [24] was 2020 nM.
